Measured values: ChEMBL document CHEMBL5303573, “Mapping human microbiome drug metabolism by gut bacteria and their genes” (Nature, 2019)

Experiment: The drug is tested on Providencia rettgeri strain: DSM1131 for biotransformation. The drug concentrations were measured before and after a 12-h incubation by liquid-chromatography-coupled mass spectrometry (LC–MS)
Assay type: ADME
Set-up: dose 2 uM, timepoint 0 vs 12 hours
Conditions: 2 µM

SMILES	Bacterial Biotransformation
C#C[C@]1(O)CC[C@H]2[C@@H]3CCC4=CC(=O)CC[C@@H]4[C@H]3CC[C@@]21CC [LEVONORGESTREL]	Compound NOT metabolized
CN(C)C(=O)Oc1cccc([N+](C)(C)C)c1.[Br-] [NEOSTIGMINE BROMIDE]	Compound NOT metabolized
CN1C(=O)CC(C)(c2ccccc2)C1=O (configuration not stated) [METHSUXIMIDE]	Compound NOT metabolized
O=C1NCC2(CCN(CCc3ccccc3)CC2)O1 [FENSPIRIDE]	Compound NOT metabolized

Experiment: The drug is tested on Bacteroides caccae strain: ATCC43185 for biotransformation. The drug concentrations were measured before and after a 12-h incubation by liquid-chromatography-coupled mass spectrometry (LC–MS)
Conditions: 2 µM

SMILES	Bacterial Biotransformation
C#C[C@]1(O)CC[C@H]2[C@@H]3CCC4=CC(=O)CC[C@@H]4[C@H]3CC[C@@]21CC [LEVONORGESTREL]	Compound metabolized
CN(C)C(=O)Oc1cccc([N+](C)(C)C)c1.[Br-] [NEOSTIGMINE BROMIDE]	Compound NOT metabolized
CN1C(=O)CC(C)(c2ccccc2)C1=O (configuration not stated) [METHSUXIMIDE]	Compound NOT metabolized
O=C1NCC2(CCN(CCc3ccccc3)CC2)O1 [FENSPIRIDE]	Compound NOT metabolized

Experiment: The drug is tested on Clostridium sp. strain: fecal isolate for biotransformation. The drug concentrations were measured before and after a 12-h incubation by liquid-chromatography-coupled mass spectrometry (LC–MS)
Conditions: 2 µM

SMILES	Bacterial Biotransformation
C#C[C@]1(O)CC[C@H]2[C@@H]3CCC4=CC(=O)CC[C@@H]4[C@H]3CC[C@@]21CC [LEVONORGESTREL]	Compound metabolized
CN(C)C(=O)Oc1cccc([N+](C)(C)C)c1.[Br-] [NEOSTIGMINE BROMIDE]	Compound NOT metabolized
CN1C(=O)CC(C)(c2ccccc2)C1=O (configuration not stated) [METHSUXIMIDE]	Compound metabolized
O=C1NCC2(CCN(CCc3ccccc3)CC2)O1 [FENSPIRIDE]	Compound NOT metabolized

Conditions: bifidobacterium adolescentis, 12 h, 2 µM
Description: The drug is tested on Bifidobacterium adolescentis strain: ATCC 15703 for biotransformation. The drug concentrations were measured before and after a 12-h incubation by liquid-chromatography-coupled mass spectrometry (LC–MS)

SMILES	Bacterial Biotransformation
C#C[C@]1(O)CC[C@H]2[C@@H]3CCC4=CC(=O)CC[C@@H]4[C@H]3CC[C@@]21CC [LEVONORGESTREL]	Compound NOT metabolized
CN(C)C(=O)Oc1cccc([N+](C)(C)C)c1.[Br-] [NEOSTIGMINE BROMIDE]	Compound NOT metabolized
CN1C(=O)CC(C)(c2ccccc2)C1=O (configuration not stated) [METHSUXIMIDE]	Compound NOT metabolized
O=C1NCC2(CCN(CCc3ccccc3)CC2)O1 [FENSPIRIDE]	Compound NOT metabolized

Experiment: The drug is tested on Bacteroides vulgatus strain: ATCC8482 for biotransformation. The drug concentrations were measured before and after a 12-h incubation by liquid-chromatography-coupled mass spectrometry (LC–MS)
Conditions: phocaeicola vulgatus, 2 µM

SMILES	Bacterial Biotransformation
C#C[C@]1(O)CC[C@H]2[C@@H]3CCC4=CC(=O)CC[C@@H]4[C@H]3CC[C@@]21CC [LEVONORGESTREL]	Compound metabolized
O=C1NCC2(CCN(CCc3ccccc3)CC2)O1 [FENSPIRIDE]	Compound NOT metabolized

Experiment: The drug is tested on Ruminococcus lactaris strain: ATCC29176 for biotransformation. The drug concentrations were measured before and after a 12-h incubation by liquid-chromatography-coupled mass spectrometry (LC–MS)
Conditions: 2 µM

SMILES	Bacterial Biotransformation
CN(C)C(=O)Oc1cccc([N+](C)(C)C)c1.[Br-] [NEOSTIGMINE BROMIDE]	Compound NOT metabolized
O=C1NCC2(CCN(CCc3ccccc3)CC2)O1 [FENSPIRIDE]	Compound NOT metabolized

Experiment: The drug is tested on Escherichia coli strain: BW25113 for biotransformation. The drug concentrations were measured before and after a 12-h incubation by liquid-chromatography-coupled mass spectrometry (LC–MS)
Conditions: 2 µM

SMILES	Bacterial Biotransformation
C#C[C@]1(O)CC[C@H]2[C@@H]3CCC4=CC(=O)CC[C@@H]4[C@H]3CC[C@@]21CC [LEVONORGESTREL]	Compound NOT metabolized
CN(C)C(=O)Oc1cccc([N+](C)(C)C)c1.[Br-] [NEOSTIGMINE BROMIDE]	Compound NOT metabolized
CN1C(=O)CC(C)(c2ccccc2)C1=O (configuration not stated) [METHSUXIMIDE]	Compound metabolized
O=C1NCC2(CCN(CCc3ccccc3)CC2)O1 [FENSPIRIDE]	Compound NOT metabolized

Experiment: The drug is tested on Clostridium sporogenes strain: ATCC15579 for biotransformation. The drug concentrations were measured before and after a 12-h incubation by liquid-chromatography-coupled mass spectrometry (LC–MS)
Conditions: 2 µM

SMILES	Bacterial Biotransformation
C#C[C@]1(O)CC[C@H]2[C@@H]3CCC4=CC(=O)CC[C@@H]4[C@H]3CC[C@@]21CC [LEVONORGESTREL]	Compound metabolized
CN(C)C(=O)Oc1cccc([N+](C)(C)C)c1.[Br-] [NEOSTIGMINE BROMIDE]	Compound NOT metabolized
CN1C(=O)CC(C)(c2ccccc2)C1=O (configuration not stated) [METHSUXIMIDE]	Compound NOT metabolized
O=C1NCC2(CCN(CCc3ccccc3)CC2)O1 [FENSPIRIDE]	Compound NOT metabolized

Experiment: The drug is tested on Bacteroides cellulosilyticus strain: DSM14838 for biotransformation. The drug concentrations were measured before and after a 12-h incubation by liquid-chromatography-coupled mass spectrometry (LC–MS)
Conditions: 2 µM

SMILES	Bacterial Biotransformation
C#C[C@]1(O)CC[C@H]2[C@@H]3CCC4=CC(=O)CC[C@@H]4[C@H]3CC[C@@]21CC [LEVONORGESTREL]	Compound metabolized
CN(C)C(=O)Oc1cccc([N+](C)(C)C)c1.[Br-] [NEOSTIGMINE BROMIDE]	Compound NOT metabolized
CN1C(=O)CC(C)(c2ccccc2)C1=O (configuration not stated) [METHSUXIMIDE]	Compound NOT metabolized
O=C1NCC2(CCN(CCc3ccccc3)CC2)O1 [FENSPIRIDE]	Compound NOT metabolized

Experiment: The drug is tested on Bifidobacterium breve strain: DSM20213 for biotransformation. The drug concentrations were measured before and after a 12-h incubation by liquid-chromatography-coupled mass spectrometry (LC–MS)
Conditions: 2 µM

SMILES	Bacterial Biotransformation
C#C[C@]1(O)CC[C@H]2[C@@H]3CCC4=CC(=O)CC[C@@H]4[C@H]3CC[C@@]21CC [LEVONORGESTREL]	Compound NOT metabolized
CN(C)C(=O)Oc1cccc([N+](C)(C)C)c1.[Br-] [NEOSTIGMINE BROMIDE]	Compound NOT metabolized
CN1C(=O)CC(C)(c2ccccc2)C1=O (configuration not stated) [METHSUXIMIDE]	Compound NOT metabolized
O=C1NCC2(CCN(CCc3ccccc3)CC2)O1 [FENSPIRIDE]	Compound NOT metabolized

Conditions: anaerostipes sp., 12 h, 2 µM
Description: The drug is tested on Anaerostipes sp. strain: fecal isolate for biotransformation. The drug concentrations were measured before and after a 12-h incubation by liquid-chromatography-coupled mass spectrometry (LC–MS)

SMILES	Bacterial Biotransformation
C#C[C@]1(O)CC[C@H]2[C@@H]3CCC4=CC(=O)CC[C@@H]4[C@H]3CC[C@@]21CC [LEVONORGESTREL]	Compound NOT metabolized
CN(C)C(=O)Oc1cccc([N+](C)(C)C)c1.[Br-] [NEOSTIGMINE BROMIDE]	Compound NOT metabolized
CN1C(=O)CC(C)(c2ccccc2)C1=O (configuration not stated) [METHSUXIMIDE]	Compound NOT metabolized
O=C1NCC2(CCN(CCc3ccccc3)CC2)O1 [FENSPIRIDE]	Compound NOT metabolized

Experiment: The drug is tested on Clostridium scindens strain: ATCC35704 for biotransformation. The drug concentrations were measured before and after a 12-h incubation by liquid-chromatography-coupled mass spectrometry (LC–MS)
Conditions: 2 µM

SMILES	Bacterial Biotransformation
C#C[C@]1(O)CC[C@H]2[C@@H]3CCC4=CC(=O)CC[C@@H]4[C@H]3CC[C@@]21CC [LEVONORGESTREL]	Compound NOT metabolized
CN(C)C(=O)Oc1cccc([N+](C)(C)C)c1.[Br-] [NEOSTIGMINE BROMIDE]	Compound NOT metabolized
CN1C(=O)CC(C)(c2ccccc2)C1=O (configuration not stated) [METHSUXIMIDE]	Compound NOT metabolized
O=C1NCC2(CCN(CCc3ccccc3)CC2)O1 [FENSPIRIDE]	Compound NOT metabolized

Conditions: parabacteroides distasonis, 12 h, 2 µM
Description: The drug is tested on Parabacteroides distasonis strain: ATCC8503 for biotransformation. The drug concentrations were measured before and after a 12-h incubation by liquid-chromatography-coupled mass spectrometry (LC–MS)

SMILES	Bacterial Biotransformation
C#C[C@]1(O)CC[C@H]2[C@@H]3CCC4=CC(=O)CC[C@@H]4[C@H]3CC[C@@]21CC [LEVONORGESTREL]	Compound metabolized
CN(C)C(=O)Oc1cccc([N+](C)(C)C)c1.[Br-] [NEOSTIGMINE BROMIDE]	Compound NOT metabolized

Conditions: bacteroides thetaiotaomicron, 12 h, 2 µM
Description: The drug is tested on Bacteroides thetaiotaomicron strain: VPI-5482 for biotransformation. The drug concentrations were measured before and after a 12-h incubation by liquid-chromatography-coupled mass spectrometry (LC–MS)

SMILES	Bacterial Biotransformation
CN(C)C(=O)Oc1cccc([N+](C)(C)C)c1.[Br-] [NEOSTIGMINE BROMIDE]	Compound metabolized
CN1C(=O)CC(C)(c2ccccc2)C1=O (configuration not stated) [METHSUXIMIDE]	Compound NOT metabolized
O=C1NCC2(CCN(CCc3ccccc3)CC2)O1 [FENSPIRIDE]	Compound metabolized

Conditions: segatella copri, 12 h, 2 µM
Description: The drug is tested on Prevotella copri strain: DSM18205 for biotransformation. The drug concentrations were measured before and after a 12-h incubation by liquid-chromatography-coupled mass spectrometry (LC–MS)

SMILES	Bacterial Biotransformation
C#C[C@]1(O)CC[C@H]2[C@@H]3CCC4=CC(=O)CC[C@@H]4[C@H]3CC[C@@]21CC [LEVONORGESTREL]	Compound NOT metabolized
CN1C(=O)CC(C)(c2ccccc2)C1=O (configuration not stated) [METHSUXIMIDE]	Compound NOT metabolized
O=C1NCC2(CCN(CCc3ccccc3)CC2)O1 [FENSPIRIDE]	Compound metabolized

Experiment: The drug is tested on Odoribacter splanchnicus strain: fecal isolate for biotransformation. The drug concentrations were measured before and after a 12-h incubation by liquid-chromatography-coupled mass spectrometry (LC–MS)
Conditions: 2 µM

SMILES	Bacterial Biotransformation
C#C[C@]1(O)CC[C@H]2[C@@H]3CCC4=CC(=O)CC[C@@H]4[C@H]3CC[C@@]21CC [LEVONORGESTREL]	Compound metabolized
CN(C)C(=O)Oc1cccc([N+](C)(C)C)c1.[Br-] [NEOSTIGMINE BROMIDE]	Compound NOT metabolized
CN1C(=O)CC(C)(c2ccccc2)C1=O (configuration not stated) [METHSUXIMIDE]	Compound NOT metabolized
O=C1NCC2(CCN(CCc3ccccc3)CC2)O1 [FENSPIRIDE]	Compound NOT metabolized

Conditions: parabacteroides johnsonii, 12 h, 2 µM
Description: The drug is tested on Parabacteroides johnsonii strain: DSM18315 for biotransformation. The drug concentrations were measured before and after a 12-h incubation by liquid-chromatography-coupled mass spectrometry (LC–MS)

SMILES	Bacterial Biotransformation
C#C[C@]1(O)CC[C@H]2[C@@H]3CCC4=CC(=O)CC[C@@H]4[C@H]3CC[C@@]21CC [LEVONORGESTREL]	Compound metabolized
CN(C)C(=O)Oc1cccc([N+](C)(C)C)c1.[Br-] [NEOSTIGMINE BROMIDE]	Compound NOT metabolized
CN1C(=O)CC(C)(c2ccccc2)C1=O (configuration not stated) [METHSUXIMIDE]	Compound NOT metabolized
O=C1NCC2(CCN(CCc3ccccc3)CC2)O1 [FENSPIRIDE]	Compound metabolized

Conditions: bacteroides fragilis, 12 h, 2 µM
Description: The drug is tested on Bacteroides fragilis strain: 3397 (T10) for biotransformation. The drug concentrations were measured before and after a 12-h incubation by liquid-chromatography-coupled mass spectrometry (LC–MS)

SMILES	Bacterial Biotransformation
C#C[C@]1(O)CC[C@H]2[C@@H]3CCC4=CC(=O)CC[C@@H]4[C@H]3CC[C@@]21CC [LEVONORGESTREL]	Compound metabolized
CN(C)C(=O)Oc1cccc([N+](C)(C)C)c1.[Br-] [NEOSTIGMINE BROMIDE]	Compound metabolized
CN1C(=O)CC(C)(c2ccccc2)C1=O (configuration not stated) [METHSUXIMIDE]	Compound NOT metabolized
O=C1NCC2(CCN(CCc3ccccc3)CC2)O1 [FENSPIRIDE]	Compound metabolized

Experiment: The drug is tested on Enterococcus faecalis strain: V583 for biotransformation. The drug concentrations were measured before and after a 12-h incubation by liquid-chromatography-coupled mass spectrometry (LC–MS)
Conditions: 2 µM

SMILES	Bacterial Biotransformation
CN(C)C(=O)Oc1cccc([N+](C)(C)C)c1.[Br-] [NEOSTIGMINE BROMIDE]	Compound NOT metabolized
CN1C(=O)CC(C)(c2ccccc2)C1=O (configuration not stated) [METHSUXIMIDE]	Compound NOT metabolized
O=C1NCC2(CCN(CCc3ccccc3)CC2)O1 [FENSPIRIDE]	Compound NOT metabolized
